Data as given in patent US20040242687A1, “Thrombus/thrombogenesis inhibitors” (priority 2001, published 2004).
“Also recorded” adds a separate entry of the source. Read-outs that look alike come from different tables or passages of the source.

Assays:
[1] = test system: patients with transient cerebral ischemic attack (TIA) / cerebral infarction; conditions: for recurrence of TIA / onset or recurrence of cerebral infarction during administration: administration continued for 337 days, single patients, hydrochloride
Method: The present invention will be explained according to the following examples in more detail. However, the scope of the invention is not limited to these examples.
A person. They occurred transient cerebral ischemic attack (TIA). From three days after the onset, treatment with 160 mg/day of Cataclot (Ono Pharmaceutical Co., Ltd.) was started and it was continued for 2 weeks.
A person. They occurred TIA.
A person. They occurred TIA. From three days after the onset, treatment with 81 mg/day of Kids Bufferin (Lion Corporation) was started and this treatment was continued for about one month.
(§1) A person. They occurred cerebral infarction.
A person. They occurred cerebral infarction and, ten months after the occurrence of TIA.
as §1
A person. They occurred cerebral infarction. […] From that day of the onset of TIA, they were hospitalized for one week and subjected to intravenous drip containing 1 g of Nicholin H (Takeda Chemical Industries, Ltd.) and administration of 300 mg/day of Panaldine (Daiichi Pharmaceutical Co., Ltd.).
A person. They occurred cerebral infarction. […] They occurred TIA two years after the onset of cerebral infarction. From that day of the onset of TIA, administration of 200 mg/day of Panaldine (Daiichi Pharmaceutical Co., Ltd.) and, in addition, 162 mg/day of Kids Bufferin (Lion Corporation) was started.
A person. They occurred cerebral infarction. […] Immediately after the recurrence, they were treated with fluid for supplementation, urokinase and 300 mg/day of Panaldine (Daiichi Pharmaceutical Co., Ltd.).

[2] = test system: stroke, myocardial infarction and vascular death; conditions: 142 trials; cited from earlier work

Structure (SMILES)	recurrence of TIA / onset or recurrence of cerebral infarction during administration ([1]; 75 mg/day)	recurrence of TIA / onset or recurrence of cerebral infarction during administration ([1]; 150 mg/day)	recurrence of TIA and cerebral infarction during administration ([1]; 150 mg/day, administration continued for 496 days, single patient)	recurrence of TIA / onset or recurrence of cerebral infarction during administration ([1]; 300 mg/day)	reduction ratio of odds concerning stroke, myocardial infarction and vascular death against the control group [2] [%]
COc1cccc(CCc2ccccc2OCC(CN(C)C)OC(=O)CCC(=O)O)c1.Cl (racemic) [sarpogrelate hydrochloride, (±)-1-[O-[2-(m-methoxyphenyl)ethyl]phenoxy]-3-(dimethylamino)-2-propyl hydrogensuccinate hydrochloride]	neither recurrence of TIA nor onset of cerebral infarction was observed; also recorded: recurrence of TIA and cerebral infarction was not observed	neither recurrence of TIA nor onset of cerebral infarction was observed; also recorded: recurrence of TIA and cerebral infarction was not observed	recurrence of TIA and cerebral infarction was not observed	neither recurrence of TIA nor onset of cerebral infarction was observed; also recorded: recurrence of TIA and cerebral infarction was not observed	–
CC(=O)Oc1ccccc1C(=O)O [aspirin]	–	–	–	–	25
